Reference: US5488051A, “Substituted 5,6-dihydro-5-oxo-1,4-dithiino-(2,3-d)-pyridazine-2,3-dicarbonitriles, compositions containing them and their use as antimicrobials” (The Dow Chemical Company, priority 1994, dated 1996)
Values after ≈ are worked out from the molar mass of the structure shown. Like-named read-outs stand apart in the source and are kept apart here.

What was measured:
[1] = system: Bacillus subtilis (Bs); experiment: MIC for Bacillus subtilis, nutrient agar; format: cell-based, Bacillus subtilis ATCC 8473; settings: 30° C., 48 hours, read-out: Minimum Inhibitory Concentration (MIC), Bs
Procedure: (§1) The minimum inhibitory concentration (MIC) for the compounds listed in Table I is determined for 9 bacteria, using nutrient agar; and 7 yeast and fungi, using malt yeast agar. A one percent solution of the test compound is prepared in a mixture of acetone and water.
(§2) Nutrient agar is prepared at pH 6.8, representing a neutral medium, and at pH 8.2, representing an alkaline medium. The nutrient agars are prepared by adding 23 g of nutrient agar to one-liter of deionized water. In addition, the alkaline medium is prepared by adjusting a 0.04M solution of N-[tris-(hydroxymethyl)methyl]-glycine buffered deionized water with concentrated sodium hydroxide to a pH of 8.5.
(§3) The test tubes containing the malt yeast agar and the nutrient agar are cooled in a water bath until the temperature of the agar is 48° C. Then, an appropriate amount of the one percent solution of the test compound is added (except in the controls where no compound is added) to the respective test tubes so that the final concentrations are zero (0), 1.0, 2.5, 5, 10, 25, 50, 100, 250 and 500 parts per million of the test compound in each of the respective type of agar. The contents of each of the test tubes are then transferred to separate petri plates. After drying for 24 hours, the petri plates containing nutrient agar are inoculated with bacteria and those containing malt yeast agar are inoculated with yeast and fungi.
(§4) The inoculation with bacteria is accomplished by using the following procedure. Twenty-four hour-cultures of each of the bacteria are prepared by incubating the respective bacteria in tubes containing nutrient broth for 24 hours at 30° C. in a shaker. Dilutions of each of the 24 hour-cultures are made so that nine separate suspensions (one for each of the nine test bacteria) are made, each containing 10^8 colony forming units (CFU) per mL of suspension of a particular bacteria. Aliquots of 0.3 mL of each of the bacterial suspensions are used to fill the individual wells of Steer's Replicator. For each microbial suspension, 0.3 mL was used to fill three wells (i.e., three wells of 0.3 mL each) so that for the nine different bacteria, 27 wells are filled. The Steer's Replicator is then used to inoculate both the neutral and alkaline pH nutrient agar petri plates.
(§5) The inoculated petri plates are incubated at 30° C. for 48 hours and then read to determine if the test compound which is incorporated into the agar prevented growth of the respective bacteria.
(§6) Table II list the bacteria, yeast and fungi used in the MIC test described above along with their respective American Type Culture Collection (ATCC) identification numbers.

[2] = system: Enterobacter aerogenes (Ea); experiment: MIC for Enterobacter aerogenes, nutrient agar; format: cell-based, Enterobacter aerogenes ATCC 13048; settings: Klebsiella aerogenes, nutrient agar, 30° C., 48 hours, read-out: Minimum Inhibitory Concentration (MIC), Ea
Procedure: as §1, §2, §3, §4, §5, §6

[3] = system: Escherichia coli (Ec); experiment: MIC for Escherichia coli, nutrient agar; format: cell-based, Escherichia coli ATCC 11229; settings: 30° C., 48 hours, read-out: Minimum Inhibitory Concentration (MIC), Ec
Procedure: as §1, §2, §3, §4, §5, §6

[4] = system: Klebsiella pneumonias (Kp); experiment: MIC for Klebsiella pneumonias, nutrient agar; format: cell-based, Klebsiella pneumonias ATCC 8308; settings: 30° C., 48 hours, read-out: Minimum Inhibitory Concentration (MIC), Kp
Procedure: as §1, §2, §3, §4, §5, §6

[5] = system: Proteus vulgaris (Pv); experiment: MIC for Proteus vulgaris, nutrient agar; format: cell-based, Proteus vulgaris ATCC 881; settings: 30° C., 48 hours, read-out: Minimum Inhibitory Concentration (MIC), Pv
Procedure: as §1, §2, §3, §4, §5, §6

[6] = system: Pseudomonas aeruginosa (PRD-10); experiment: MIC for Pseudomonas aeruginosa PRD-10, nutrient agar; format: cell-based, Pseudomonas aeruginosa ATCC 15442; settings: 30° C., 48 hours, read-out: Minimum Inhibitory Concentration (MIC), PRD
Procedure: as §1, §2, §3, §4, §5, §6

[7] = system: Pseudomonas aeruginosa (Pa); experiment: MIC for Pseudomonas aeruginosa, nutrient agar; format: cell-based, Pseudomonas aeruginosa ATCC 10145; settings: 48 hours, read-out: Minimum Inhibitory Concentration (MIC), Pa
Procedure: as §1, §2, §3, §4, §5, §6

[8] = system: Salmonella choleraesuis; experiment: MIC for Salmonella choleraesuis, nutrient agar; format: cell-based, Salmonella choleraesuis ATCC 10708; settings: Salmonella enterica, 30° C., 48 hours, read-out: Minimum Inhibitory Concentration (MIC), SC
Procedure: as §1, §2, §3, §4, §5, §6

[9] = system: Staphylococcus aureus (Sa); experiment: MIC for Staphylococcus aureus, nutrient agar; format: cell-based, Staphylococcus aureus ATCC 6538; settings: 30° C., 48 hours, read-out: Minimum Inhibitory Concentration (MIC), Sa
Procedure: as §1, §2, §3, §4, §5, §6

[10] = system: Aspergillus niger (An); experiment: MIC for Aspergillus niger, malt yeast agar; format: cell-based, Aspergillus niger ATCC 16404; settings: malt yeast agar; 30° C., 72 hours for fungi; read-out: Minimum Inhibitory Concentration (MIC), An
Procedure: as §1
(§7) Malt yeast agar is prepared by adding 3 g yeast extract and 45 g malt agar per liter of deionized water. The specific agar is dispensed in 30 mL aliquots into 25×200 mm test tubes, capped and autoclaved for 15 minutes at 115° C.
as §3
(§8) The inoculation with the yeast and fungi is accomplished as follows. Cultures of yeast and fungi are incubated for seven days on malt yeast agar at 30° C. These cultures are used to prepare suspensions by the following procedure. A suspension of each organism is prepared by adding 10 mL of sterile saline and 10 microliters of octylphenoxy polyethoxy ethanol to the agar slant of yeast or fungi. The sterile saline/octylphenoxy polyethoxy ethanol solution is then agitated with a sterile swab to suspend the microorganism grown on the slant. Each resulting suspension is diluted into sterile saline (1 part suspension: 9 parts sterile saline). Aliquots of these dilutions are placed in individual wells of Steer's Replicator and petri plates inoculated as previously described. The petri plates are incubated at 30° C. and read after 48 hours for yeast and 72 hours for fungi.
as §6

[11] = system: Candida albicans (Ca); experiment: MIC for Candida albicans, malt yeast agar; format: cell-based, Candida albicans ATCC 10231; settings: malt yeast agar; 30° C., 48 hours for yeast; read-out: Minimum Inhibitory Concentration (MIC), Ca
Procedure: as §1, §7, §3, §8, §6

[12] = system: Penicillium chrysogenum (Pc); experiment: MIC for Penicillium chrysogenum, malt yeast agar; format: cell-based, Penicillium chrysogenum ATCC 9480; settings: malt yeast agar; 30° C., 72 hours for fungi; read-out: Minimum Inhibitory Concentration (MIC), PC
Procedure: as §1, §7, §3, §8, §6

[13] = system: Saccharomyces cerevisiae; experiment: MIC for Saccharomyces cerevisiae, malt yeast agar; format: cell-based, Saccharomyces cerevisiae ATCC 4105; settings: malt yeast agar, 30° C., 48 hours for yeast, read-out: Minimum Inhibitory Concentration (MIC), Sc
Procedure: as §1, §7, §3, §8, §6

[14] = system: Trichoderma viride (Tv); experiment: MIC for Trichoderma viride, malt yeast agar; format: cell-based, Trichoderma viride ATCC 8678; settings: malt yeast agar; 30° C., 72 hours for fungi; read-out: Minimum Inhibitory Concentration (MIC), Tv
Procedure: as §1, §7, §3, §8, §6

[15] = system: Aureobasidium pullulan (Ap); experiment: MIC for Aureobasidium pullulan, malt yeast agar; format: cell-based, Aureobasidium pullulan ATCC 16622; settings: malt yeast agar; 30° C.; 48 hours for yeast and 72 hours for fungi; read-out: Minimum Inhibitory Concentration (MIC), Ap
Procedure: as §1, §7, §3, §8, §6

[16] = system: Fusarium oxysporum (Fo); experiment: MIC for Fusarium oxysporum, malt yeast agar; format: cell-based, Fusarium oxysporum ATCC 48112; settings: malt yeast agar; 30° C., 72 hours for fungi; read-out: Minimum Inhibitory Concentration (MIC), Fo
Procedure: as §1, §7, §3, §8, §6

Structure (SMILES)	MIC ([1]; pH 6.8, nutrient agar)	MIC ([1]; pH 8.2, nutrient agar)	MIC ([2]; pH 6.8)	MIC ([2]; pH 8.2)	MIC ([3]; pH 6.8, nutrient agar)	MIC ([3]; pH 8.2, nutrient agar)	MIC ([4]; pH 6.8, nutrient agar)	MIC ([4]; pH 8.2, nutrient agar)	MIC ([5]; pH 6.8, nutrient agar)	MIC ([5]; pH 8.2, nutrient agar)	MIC ([6]; pH 6.8, nutrient agar)	MIC ([6]; pH 8.2, nutrient agar)	MIC ([7]; pH 6.8, 30° C.)	MIC ([7]; pH 8.2, 30° C.)	MIC ([8]; pH 6.8, nutrient agar)	MIC ([8]; pH 8.2, nutrient agar)	MIC ([9]; pH 6.8, nutrient agar)	MIC ([9]; pH 8.2, nutrient agar)	MIC [10]	MIC [11]	also measured
N#CC1=C(C#N)Sc2c(cnn(-c3cccc(Cl)c3)c2=O)S1 [E, 5,6-dihydro-6-(3-chlorophenyl)-5-oxo-1,4-dithiino-(2,3-d)-pyridazine-2,3-dicarbonitrile]	25 µg/mL (≈ 72.5 µM)	250 µg/mL (≈ 725 µM)	> 500 µg/mL	> 500 µg/mL	500 µg/mL (≈ 1450 µM)	> 500 µg/mL	> 500 µg/mL	> 500 µg/mL	500 µg/mL (≈ 1450 µM)	> 500 µg/mL	> 500 µg/mL	> 500 µg/mL	> 500 µg/mL	> 500 µg/mL	> 500 µg/mL	> 500 µg/mL	250 µg/mL (≈ 725 µM)	> 500 µg/mL	50 µg/mL (≈ 145 µM)	25 µg/mL (≈ 72.5 µM)	MIC [12]: 25 µg/mL (≈ 72.5 µM); MIC [13]: 25 µg/mL (≈ 72.5 µM); MIC [14]: 100 µg/mL (≈ 290 µM); MIC [15]: 25 µg/mL (≈ 72.5 µM); MIC [16]: 50 µg/mL (≈ 145 µM)
N#CC1=C(C#N)Sc2c(cnn(-c3ccc(Cl)c(Cl)c3)c2=O)S1 [F, 5,6-dihydro-6-(3,4-dichlorophenyl)-5-oxo-1,4-dithiino-(2,3-d)-pyridazine-2,3-dicarbonitrile]	100 µg/mL (≈ 264 µM)	500 µg/mL (≈ 1320 µM)	> 500 µg/mL	> 500 µg/mL	> 500 µg/mL	> 500 µg/mL	> 500 µg/mL	> 500 µg/mL	> 500 µg/mL	> 500 µg/mL	> 500 µg/mL	> 500 µg/mL	> 500 µg/mL	> 500 µg/mL	> 500 µg/mL	> 500 µg/mL	100 µg/mL (≈ 264 µM)	250 µg/mL (≈ 659 µM)	250 µg/mL (≈ 659 µM)	250 µg/mL (≈ 659 µM)	MIC [12]: 250 µg/mL (≈ 659 µM); MIC [13]: 250 µg/mL (≈ 659 µM); MIC [14]: > 500 µg/mL; MIC [15]: 100 µg/mL (≈ 264 µM); MIC [16]: 500 µg/mL (≈ 1320 µM)
